Legend:
Assay type in all cases: in vivo, rat
[1] = system: rats with chronic constriction injury (CCI) to sciatic nerve; assay: Intrathecal application in CCI rats, behavioural reflex testing (PWL, PWT); conditions: for effect on contralateral responses / reversal of mechanical reflex sensitisation ipsilateral to CCI / reversal of thermal reflex sensitisation ipsilateral to CCI: 2R,4R-APDC 15 nmol, ACPT-III and AP-4 150 nmol each; for reversal of mechanical reflex sensitisation ipsilateral to CCI / reversal of thermal reflex sensitisation ipsilateral to CCI: 15-30 min post-injection
Protocol: (§1) Pain models were generated under halothane anaesthesia (Zeneca, Cheshire, UK). For the chronic constriction injury (CCI) model of neuropathic pain, four ligatures were tied loosely to constrict the sciatic nerve at mid-thigh level (as described previously^[39]). An inflammatory pain model was generated by injecting 100 μl of Complete Freund's Adjuvant (CFA, Sigma-Aldrich Ltd) into the ventral surface of the right hindpaw^[39]. A model of peripheral demyelination-induced pain was produced by focal application of lysolecithin to the sciatic nerve^[40]. Peak behavioural sensitisation was observed post-surgically between days 10-16 for CCI, 1-3 for CFA, and 7-14 for lysolecithin, when pharmacological and electrophysiological experiments and tissue removal were conducted.
(§2) Thermal sensitivity was assessed by measuring paw withdrawal latency (PWL, s) in response to a noxious thermal stimulus (Hargreaves' thermal stimulator, Linton Instrumentation, Diss, UK) directed to the hindpaw mid-plantar glabrous surface. Mechanical sensitivity was recorded as the paw withdrawal threshold (PWT, mN/mm^2) to calibrated von Frey filaments (Stoelting, Ill., US), as previously described^[39]. Sensitivity to noxious cold was assessed by placing animals in a waterbath with an aluminium floor containing 1 cm deep 4° C. water and counting the time the paw was held suspended over a 20 s period.
(§3) The following drugs were applied intrathecally in a 50 μl volume of saline-based vehicle at 37° C.: icilin (2.5-200 μM in saline with 0.2% dimethylformamide, DMF), LY 341495 (100 μM in saline), UBP 1112 (200 μM in saline), 2R,4R-APDC ((2R, 4R)-4-aminopyrrolidine-2,4-dicarboxylate), 300 μM in saline), ACPT-III ((1R,3R,4S)-1-aminocyclopentane-1,3,4-tricarboxylic acid), 3 mM in saline), AP-4, ((L-(1)-2-amino-4-phosphonobutyric acid), 3 mM in saline), naloxone (0.5 mM in saline), NMDA (75 μM in saline) and ACPC (1-aminocyclopropanecarboxylic acid, 15 μM in saline) (Tocris Cookson, Bristol, UK), (−)-menthol (1R,2S,5R-(−)-menthol, 4 mM in saline), cinnamaldehyde (1.5 mM in saline) and Ruthenium Red (5 μM in saline) (Sigma-Aldrich Co. Ltd, UK) and allicin (0.5 mM in saline with 0.5% DMF) and diallyl disulphide (DADS, 1 mM in saline with 0.5% DMF) (LKT Laboratories Inc., St Paul, Minn., USA). Drugs were injected into the L5/6 intrathecal space under brief halothane anaesthesia, using a 25-gauge needle microsyringe (BD Biosciences, Oxford, UK), as described previously^[39] in animals that were at peak levels of behavioural sensitisation. Behavioural reflex testing commenced 15 min following injection to allow recovery from anaesthesia^[40,41,42] and continued every 5 min thereafter until readings returned to baseline levels (n=6 in each case). We, and others^[40,41,42] find complete recovery from anaesthetic by 15 minutes. All appropriate controls were carried out to eliminate the possibility of effects due to vehicle or to injection procedure.
(§4) The TRPM8 channel activators, icilin and (−)-menthol were tested in CCI and naïve animals. The effects of icilin were additionally assessed in animals with CFA-induced inflammation or with lysolecithin-induced demyelination. Icilin was also co-administered with the μ-opioid receptor antagonist naloxone, the Group II metabotropic glutamate receptor (mGluR) antagonist, LY 341495, or the Group III mGluR antagonist, UBP 1112. The effects of these antagonists alone as well as effects of the Group II mGluR agonist, 2R,4R-APDC and the Group III mGluR agonists, ACPT-III and AP-4, were assessed in CCI animals. The TRPA1 channel activator, cinnamaldehyde, alone and with icilin, was tested in CCI animals and in naïve animals. Further TRPA1 channel activators, allicin and diallyl disulphide were assessed in naïve animals. Both icilin and cinnamaldehyde effects in CCI animals were also investigated in the additional presence of Ruthenium Red.

[2] = system: rats with chronic constriction injury (CCI) to sciatic nerve; assay: Topical application to paws of CCI rats, behavioural reflex testing (thermal PWL, mechanical PWT); conditions: for analgesia, thermal hyperalgesia (Hargreaves' test): 30 μM topical, CCI model; for reversal of sensitised responses: topical, (−)-menthol 4 mM, isomenthol and (+)-menthol 8 mM and 16 mM
Protocol: as §1, §2
Icilin was applied at concentrations of 2.5-500 μM (in water with 0.2% DMF), by placing CCI or naïve rats unrestrained for 5 min in a 1 cm deep waterbath (sufficient to cover paws), which was thermostatically controlled to a temperature of 30° C., or by very lightly anaesthetising rats and immersing hindpaws in small tubes containing 5 ml icilin (500 μM-5 mM, with a vehicle of 45% dimethylformamide in 0.2% aqueous Tween 80) for 5 min, followed by sensory testing for 60-80 mins. The effects of (−)-menthol and its stereoisomers isomenthol (1S,2R,5R-menthol,) and (+)-menthol (1S,2R,5S(+)-menthol) (4-16 mM in 80% ethanol) were also assessed. Relevant vehicles were always assessed in similar experiments. As a contrast, the effect of cinnamaldehyde (1.5 mM in water) and the effect of cinnamaldehyde with additional icilin (80 μM in water with 0.2% DMF) were assessed in naïve animals. The effects of icilin (80 μM) were further assessed in CCI animals that had undergone antisense and mis-sense treatment for knockdown of TRPM8 or immediately following intrathecal injection of either LY 341495 or UBP 1112. […] The effects of brief paw immersion at different temperatures (10-22° C. for 5 min) on CCI rats were assessed by mechanical testing. The effects of intrathecal LY 341495 or UBP 1112 on the reversal of ipsilateral sensitisation in CCI following a 16° C. cool challenge for 5 min were measured. Reflex testing commenced 5 minutes following challenge, unless animals had been anaesthetised, in which case 15 minutes was allowed for recovery. Six replicate animals were tested in all pharmacological experiments.
Antisense and mis-sense oligonucleotides were 22-mers with phosphorothioate bonds at the last two positions at 5′ and 3′ ends (MWG Biotech, Ebersberg, Germany). Antisense extended from base −10 to base +12 relative to the start of the open reading frame for the rat TRPM8 gene: 5′ C*T*CGAAGGACATCTTGCCGT*G*G 3′, where * represents phosphorothioate linkages. Mis-sense was designed with 4 inversions of C/G or A/T as appropriate at residues 3, 11, 14 and 22, preserving overall G/C content. BLAST searches of both oligonucleotides indicated no significant complementarity to any known gene sequence. 14-day or 7-day osmotic minipumps (for CCI experiments or naïve electrophysiology experiments respectively—Alzet Minipump, models 2002, 2001; Charles River, UK) containing oligonucleotides (1 μg/μl in sterile saline) were connected to canulae inserted under the dura of the spinal cord to level L5/6 and produced a predicted infusion rate of 0.5 μl/h. […]

[3] = system: naïve rats; assay: Intrathecal application in naïve rats, behavioural reflex testing (PWL, PWT); conditions: naïve animals, cinnamaldehyde 75 nmol, allicin 25 nmol, diallyl disulphide 50 mmol
Protocol: as §2, §3, §4

[4] = system: saphenous nerve afferents; assay: Saphenous nerve afferent recordings after topical application to receptive field; conditions: resiniferatoxin 1 mM; for firing frequency after drug / increase in firing frequency: topical icilin 200 μM
Excerpt: Antisense and mis-sense oligonucleotides were 22-mers with phosphorothioate bonds at the last two positions at 5′ and 3′ ends (MWG Biotech, Ebersberg, Germany). Antisense extended from base −10 to base +12 relative to the start of the open reading frame for the rat TRPM8 gene: 5′ C*T*CGAAGGACATCTTGCCGT*G*G 3′, where * represents phosphorothioate linkages. Mis-sense was designed with 4 inversions of C/G or A/T as appropriate at residues 3, 11, 14 and 22, preserving overall G/C content. BLAST searches of both oligonucleotides indicated no significant complementarity to any known gene sequence. 14-day or 7-day osmotic minipumps (for CCI experiments or naïve electrophysiology experiments respectively—Alzet Minipump, models 2002, 2001; Charles River, UK) containing oligonucleotides (1 μg/μl in sterile saline) were connected to canulae inserted under the dura of the spinal cord to level L5/6 and produced a predicted infusion rate of 0.5 μl/h. CCI surgery was performed at the same time as minipump implantation. Sensory tests were carried out to assess the time-course of behavioural sensitisation in animals which had also undergone a CCI injury. Icilin was applied topically rather than intrathecally so as to prevent any interference with the infusion canula. Peripheral nerve recordings and tissue harvesting were carried out after an interval of 4-5 days to allow time for protein knockdown.
Peripheral: Recordings of saphenous (sensory) nerve were made in naïve animals (n=7) to assess the effects of topical icilin on primary afferents. In addition, recordings were carried out on animals which had undergone TRPM8 antisense or mis-sense treatment beginning 4-5 days previously. Rats were anaesthetised (with 0.6 ml 25% urethane/100 g, i.p.) and the saphenous nerve was exposed and dissected from its associated vein and artery. Further dissection under liquid paraffin enabled identification of afferent preparations comprising a small number of fibres. The conduction velocity of single identified afferent fibres was determined using bipolar electrodes and the peripheral stimulus technique^[43]. Following isolation of preparations, icilin (200 μM in water with 0.2% DMF), (−)-menthol (4 mM in 25% ethanol) resiniferatoxin (1 mM in ethanol) or vehicle alone were applied to the hindlimb receptive fields and neuronal responses recorded using the Chart programme (version 3.6). Central: Recordings of spinal dorsal horn neurons were made in CCI animals, as described previously^[39]. Following halothane induction, the jugular vein and trachea were canulated and intravenous anaesthetic delivered: α-chloralose ([…], Fisher) and urethane ([…], Sigma), with small supplementary doses of α-chloralose as required throughout the experiment. Core body temperature was maintained at 37-38° C. by means of a thermostatically controlled heated blanket. The animal was placed in a stereotaxic frame, and the thoracolumbar spinal column was supported using three pairs of swan-necked clamps. A laminectomy was performed at L2-L5, and agar (2% in saline at 37° C.) was delivered over exposed cord to increase mechanical stability. Above the recording region the agar and spinal cord dura were removed and liquid paraffin poured into the pool. Extracellular recordings were made from single multireceptive neurons in laminae I-IV through the centre barrel of a seven-barrelled glass microelectrode filled with 4M NaCl (tip-diameter […], DC resistance 5-8 MΩ). The receptive fields of hair-follicle innervated neurons on the distal hindlimb were identified by an innocuous brush stimulus^[39]. Icilin (200 μM in water with 0.2% DMF) was applied peripherally to the receptive field of individual recorded neurons, and the effect on neuronal response to a rotating brush was recorded and analysed using Spike2 programme (Version 3.2, CED). […]

[5] = mis-sense-treated animals, (−)-menthol 4 mM

Q: Which “effect on icilin analgesia” value ([1]; naloxone 25 nmol intrathecal co-administration with icilin) does the source give for `C=CCN1CC[C@]23c4c5ccc(O)c4O[C@H]2C(=O)CC[C@@]3(O)[C@H]1C5` [naloxone] here?
A: had no effect

Q: With `N[C@@H](CCP(=O)(O)O)C(=O)O` [AP-4, L-(1)-2-amino-4-phosphonobutyric acid] as the compound, how does the “effect on contralateral responses” value ([1]; intrathecal) read?
A: no effects contralaterally

Q: And the “reversal of mechanical reflex sensitisation ipsilateral to CCI” value ([1]; intrathecal)?
A: 60.7±8.0%

Q: And the “reversal of thermal reflex sensitisation ipsilateral to CCI” value ([1]; intrathecal)?
A: 60.8±6.7%

Q: How did the “analgesia, thermal hyperalgesia (Hargreaves' test)” value [2] turn out when `COc1ccc(NC(=O)C2CC(C)CCC2C(C)C)cc1` (centres unmarked) [WS-12, 2-isopropyl-5-methyl-cyclohexanecarboxylic acid (4-methoxyphenyl)amide] was run?
A: causes analgesia

Q: How did the “effect on contralateral responses” value ([1]; intrathecal) turn out when `N[C@]1(C(=O)O)C[C@H](C(=O)O)[C@H](C(=O)O)C1` [ACPT-III, (1R,3R,4S)-1-aminocyclopentane-1,3,4-tricarboxylic acid] was run?
A: no effects contralaterally

Q: And the “reversal of mechanical reflex sensitisation ipsilateral to CCI” value ([1]; intrathecal)?
A: 65.7±11.4%

Q: What about the “reversal of thermal reflex sensitisation ipsilateral to CCI” value ([1]; intrathecal) of the same compound?
A: 83.6±6.3%

Q: `N.N.N.N.N.N.N.N.N.N.N.N.N.N.[Cl-].[Cl-].[Cl-].[Cl-].[Cl-].[Cl-].[O-2].[O-2].[Ru+3].[Ru+3].[Ru+4]` [Ruthenium Red] was tested. Which “effect on analgesic effect of intrathecally-injected icilin” value ([1]; Ruthenium Red 0.25 nmol with icilin 10 nmol) did it give?
A: unaffected

Q: And the “effect on sensitising effects of cinnamaldehyde” value ([1]; co-injection of Ruthenium Red 0.25 nmol with cinnamaldehyde 75 nmol, intrathecal)?
A: prevented

Q: How did the “effect on contralateral responses” value ([1]; intrathecal) turn out when `N[C@@]1(C(=O)O)CN[C@@H](C(=O)O)C1` [2R,4R-APDC, (2R, 4R)-4-aminopyrrolidine-2,4-dicarboxylate] was run?
A: no effect on contralateral responses

Q: And the “reversal of mechanical reflex sensitisation ipsilateral to CCI” value ([1]; intrathecal)?
A: 56.0±10.9%

Q: And the “reversal of thermal reflex sensitisation ipsilateral to CCI” value ([1]; intrathecal)?
A: 72.1±6.4%

Q: What does the source list for `C=CCS[S+]([O-])CC=C` (centres unmarked) [allicin]?
A: reduction in PWL [3]: 33.2±5.9%; reduction in PWT [3]: 20.7±8.2%

Q: Which “reversal of sensitised responses” value [2] does the source give for `CC1CC[C@H](C(C)C)[C@@H](O)C1` (single isomer, unassigned; (+)) [(+)-menthol] here?
A: produced reversal of sensitised responses

Q: For `COc1ccccc1N1CC=C(c2cccc([N+](=O)[O-])c2)NC1=O` [methoxy-icilin, 1-(2′-methoxyphenyl)-4-(3″-nitrophenyl)-1,2,3,6-tetrahydropyrimidin-2-one], which “analgesia, thermal hyperalgesia (Hargreaves' test)” value [2] is on record?
A: causes analgesia

Q: With `C=C(C)[C@]12C[C@@H](C)[C@@]34O[C@](Cc5ccccc5)(O[C@@H]1[C@@H]3C=C(COC(=O)Cc1ccc(O)c(OC)c1)C[C@]1(O)C(=O)C(C)=C[C@@H]41)O2` [resiniferatoxin] as the compound, how does the “afferents activated out of 28 recorded” value ([4]; antisense-treated animals) read?
A: 16

Q: What about the “firing frequency after drug” value ([4]; antisense-treated animals, (−)-menthol 4 mM) of the same compound?
A: 25.9±1.8 Hz

Q: What about the “increase in firing frequency” value ([4]; antisense-treated animals) of the same compound?
A: 6 fold

Q: What about the “firing frequency after drug” value [4, 5] of the same compound?
A: 24.8±3.1 Hz

Q: What about the “increase in firing frequency” value [4, 5] of the same compound?
A: 5 fold

Q: How did the “reversal of sensitised responses” value [2] turn out when `CC(C)[C@H]1CC[C@@H](C)C[C@@H]1O` [isomenthol, 1S,2R,5R-menthol] was run?
A: produced reversal of sensitised responses

Source: patent US20100137344A1, “INDUCTION OF ANALGESIA IN NEUROPATHIC PAIN” (University Court of the University of Edinburgh, priority 2006, published 2010)
